In patent US9289443B2, “Pharmaceutical composition and method for preventing or treating hepatitis C” (INDUSTRIAL TECHNOLOGY RESEARCH INSTITUTE, priority 2010, dated 2016):

Key:
[1] = Cell cytotoxic test (MTT) on Huh-luc/neo-ET cells; assay type: cell-based; conditions: human, concentration for 50% cell kill, two-day culture
Protocol: (§1) Cell Cytotoxic Test on Huh-luc/noe-ET Cells
(§2) Huh-luc/neo-ET cells with a concentration of 2.5×10^4 cells/100 μl/well were seeded into a 96 well culture plate (Corning Incorporation COSTAR, 3599) and placed into a cell incubator for culturing.
(§3) The next day, the oleanolic acid derivatives as listed in the following Tables 1 and 2 were diluted with a DMEM culture medium to the concentrations of 28.73 μg/ml, 9.57 μg/ml, 3.19 μg/ml, 1.06 μg/ml, 0.35 μg/ml, 0.11 μg/ml, 0.039 μg/ml and 0.013 μg/ml, respectively, or diluted to the concentrations of 114.92 μg/ml, 38.33 μg/ml, 12.77 μg/ml, 4.25 μg/ml, 1.42 μg/ml, 0.46 μg/ml, 0.16 μg/ml and 0.057 μg/ml, respectively. The initial medium in the 96 well culture plate was sucked out by a vacuum pump (DOAT-704AA) without removing the cells. Then, the culture medium containing the oleanolic acid derivatives were added into the 96 well culture plate containing 100 μl/well of the cells as the experiment groups, while the untreated culture mediums were added to the cells as a control.
(§4) After a two-day culture, the medium was removed and each well containing cells was washed by 100 μl of 1×PBS (1 mM KH2PO4, 10 mM Na2HPO4, 137 mM NaCl, 2.7 mM KCl) twice. Precipitates were recorded and PBS was removed. 50 μl of the medium containing 0.5 mg/ml of MTT (Sigma, M2128) was added into each well of the 96 well culture plate. The 96 well culture plate was placed in a CO2 culture incubator for 1 hour. Subsequently, 150 μl of DMSO (Riedel-de Haül, 60153) was added to each well of the 96 well culture plate and vortexed (KS shaker Type 670) to thoroughly mix the resulting purple precipitates. The 96 well culture plate was then placed in a continuous wave length microwell plate analysis system (Molecular Devices, SPECTRAMAX 190) to measure the absorbance of cells at a wavelength of 560 nm.
(§5) The average absorbance of the control was set as 100% of the cell survival rates (%) to calculate the cell survival rates (%) of the experiment groups with different concentrations of the oleanolic acid derivatives.
(§6) The cell survival rate was calculated by the following formula: Absorbance of the experiment group/Absorbance of the control×100%
(§7) The data of the cell survival rates for all experiment groups were plotted on an x-y graph to see the distribution. A trend line was obtained. […]

Huh-luc/neo-ET cells = assay: Cell cytotoxic test (MTT) on Huh-luc/neo-ET cells; assay type: cell-based; conditions: concentration for 15% cell kill, two-day culture
Protocol: as §1, §2, §3, §4, §5, §6, §7

[2] = tested on: HCV replicon system (Huh-luc/neo-ET cell carrying I389luc-ubi-NS3-3'/ET); assay: Inhibition of the HCV replication by determining the firefly luciferase activity (HCV replicon system); assay type: cell-based, Hepatitis C virus
Description: HCV replicon system was used to test the effects of compounds on the treatment and prevention of hepatitis C. The HCV replicon system has been acknowledged as a screening tool for new drugs (Lohmann, V. et al., 1999, Replication of subgenomic hepatitis C virus RNAs in hepatoma cell line, Science. Vol. 285, 110-113; Bartenschlager, R. 2002, Hepatitis C virus replicons: potential role for drug development, Nature Reviews/Drug Discovery. Vol. 1, 911-916; Vorlijk, J. M. et al., 2003, A replicon-based bioassay for the measurement of interferons in patients with chronic hepatitis C, Journal of Virological Methods. 110:201-209). The HCV replicon system includes a Huh-luc/neo-ET cell carrying I389luc-ubi-NS3-3′/ET gene construct which monitors the replicative capability of the HCV. In the HCV replicon system, a firefly luciferase-ubiquitin-neomycin fusion protein is expressed by the translation of the internal ribosomal entry site (IRES) of the HCV, and the hepatitis C viral nonstructural proteins (NS3-5B), which includes protease, helicase and polymerase, are expressed by the translation of the IRES of the encephalomyocarditis virus (EMCV).
The IRES of the hepatitis C virus or the hepatitis C viral nonstructural proteins consist of a replication complex. When the replication complex is affected by the candidate compound, the activity of the HCV replicon system is inhibited and the activity of the luciferase is reduced. Accordingly, the inhibition of the HCV can be estimated by determining the activity of the intensity of the luciferase expressed by the Huh-luc/noe-ET cell.
Inhibition of the HCV Replication by Determining the Firefly Luciferase Activity
as §2
The oleanolic acid derivatives as listed in Table 2 were co-cultured with Huh-luc/neo-ET cells for 2 days. The mediums were washed twice by 100 μl of 1×PBS (1 mM KH2PO4, 10 mM Na2HPO4, 137 mM NaCl, 2.7 mM KCl) and PBS was removed. 35 μl of 1× passive lysis buffer (Promega, E1941) was added to the cells and vortexed for 10 minutes to thoroughly lysis the cells.
30 μl/well of the cell suspension was then added to a 96 well white plate (NUNC, 236108) for the measurement of the luciferase activity. Subsequently, 40 μl/well of luminescence analysis buffer and 20 μl/well of luminescence substrate (1 mM D-Luciferin) were added into the 96 well white plates. The luciferase activity (Rlu/s) was measured by a microplate luminescence meter (Berthold, MPL4) immediately.
The luciferase activity of the control was set as a standard to calculate the inhibition rates (%) of HCV of the experiment groups. The inhibition rates was calculated by the following formula: […]
After the test compounds were serial diluted and the inhibition rates of the HCV replication were determined at different concentrations, the concentration at 50% inhibition of the HCV replication (IC50) was calculated by grafit5 software (Erithacus Software).
For each experiment, 0.5 ng/ml and 0.1 ng/ml of the PEG IFN alpha-2a were used as positive controls for the IC50 test. Meanwhile, 1 μg/ml of cyclosporine A (CsA) was also used as a positive control for the IC50 test.

For C=CC(C)(CC/C=C(\CO)C(=O)OC1CC2(C(=O)OC3OCC(OC4CC(CO)C(O)C(OC5OC(CO)C(OC6OC(C)C(O)C(O)C6O)C(O)C5O)C4O)C(O)C3O)CCC3(C)C(=CCC4C5(C)CCC(OC6OC(CO)C(OC7OC(CO)C(O)C(OC8OCC(O)C(O)C8O)C7O)C(O)C6O)C(C)(C)C5CCC43C)C2CC1(C)C)OC1OC(C)C(O)C(O)C1O (centres unmarked) [A27], the CC50 at 2 days [1] was 76.7 µM, the CC15 (Huh-luc/neo-ET cells) was 19.44 µM and the inhibition at 10 µM ([2]; Hepatitis C virus, Huh-luc/neo-ET, 48 h, compound concentration 10 μM, 2 days co-culture, luciferase activity, read-out: Inhibition rate (%)) was 96.9 ± 0.6%. For the same molecule, the IC50 ([2]; Hepatitis C virus, concentration for 50% inhibition of the HCV replication, Huh-luc/neo-ET replicon cells, read-out: IC50) was 0.72 ± 0.07 µM and the “EW (CC50/IC50)” value ([2]; ratio of CC50/IC50) was 106.56.
